In patent publication US20090074831A1, “LOCAL […] […] OF mTOR INHIBITORS IN COMBINATION WITH PEROXISOME PROLIFERATORS-ACTIVATED RECEPTOR STIMULATORS” (priority 2007, published 2009):

Legend:
Patients [1] = test: IVUS substudy of the MVP restenosis trial; assay type: in vivo, human
Excerpt: Serial intravascular ultrasound (IVUS) examinations have been performed in a consecutive series of patients involved in the MVP trial. By providing tomographic views of coronary arteries with high resolution, IVUS allows quantitative assessment of changes in arterial lumen and wall dimensions. We were therefore able in this study to determine the pathophysiology of coronary restenosis after balloon angioplasty in patients systematically undergoing follow-up IVUS examination and determine the effect of probucol on tissue hyperplasia and vascular remodeling after coronary angioplasty. The present invention concerns the IVUS substudy from the MVP restenosis trial. MVP was a double-blind placebo-controlled randomized clinical trial with four study groups. The protocol was approved by the Montreal Heart Institute institutional review board. The MVP study design, inclusion and exclusion criteria have been previously described (N Engl J Med 1997; 365-372). Briefly, patients referred for elective coronary angioplasty were evaluated at least 30 days prior to their scheduled procedure. Eligible patients were asked to provide written informed consent. […] The sequence of contrast injections with the exact degree of angulation was recorded and used for every angiogram. Coronary arteriograms (pre-, post-procedure, and final follow-up) were analyzed together using the Coronary Measurement System (CMS), as previously reported. […] Patients were readmitted for follow-up coronary angiography at five to seven months. […] IVUS imaging was monitored by an experienced cardiologist, but the angioplasty operator was blinded to ultrasound results to avoid altering standard balloon angioplasty practice. […] One angiographic view was recorded on videotape before beginning pullback of the IVUS catheter. […] Simultaneous high-resolution fluoroscopic images were recorded on the IVUS imaging screen during pullbacks to constantly know the location of the IVUS transducer. […]

LDL = test: ex vivo copper-induced LDL peroxidation, monitoring of diene conjugates (lag phase); design: species or system human; settings: treatment for one month; preliminary results
Excerpt: Dietary intervention and smoking habits were similar in all groups. Probucol may simply be a more powerful antioxidant than the combination of vitamins. To this regard, preliminary results from the continuous spectrophotometric monitoring of diene conjugates in LDL after the addition of copper ions to the isolated lipoprotein ex vivo (Free Radic Res Commun 1989; 6:67-75) of MVP patients are noteworthy.

Patients [2] = test: MultiVitamins and Probucol (MVP) randomized clinical trial, angiographic and clinical endpoints; assay type: in vivo, human
Excerpt: It was not possible to determine with angiography alone whether probucol acted via inhibition of tissue hyperplasia or improvement in vascular remodeling. […] In addition, the invention enables the skilled practitioner to use probucol in conjunction with other percutaneous coronary interventions such as stenting if it is deemed appropriate.
The present invention concerns the IVUS substudy from the MVP restenosis trial. MVP was a double-blind placebo-controlled randomized clinical trial with four study groups. The protocol was approved by the Montreal Heart Institute institutional review board. The MVP study design, inclusion and exclusion criteria have been previously described (N Engl J Med 1997; 365-372). Briefly, patients referred for elective coronary angioplasty were evaluated at least 30 days prior to their scheduled procedure. Eligible patients were asked to provide written informed consent. Patients were eligible if they were scheduled to undergo standard balloon angioplasty on at least one native coronary artery and had at least one de novo target lesion with luminal narrowing of fifty percent or more by caliper measurements.
Beginning thirty days prior to scheduled angioplasty, patients were randomly assigned to receive either probucol alone, multivitamins alone, the combination of probucol and multivitamins, or placebo. Probucol 500 mg or matched placebo was administered twice daily. The multivitamin complex, consisting of vitamin E 700 IU, vitamin C 500 mg and beta-carotene 30,000 IU, or matched placebo was also administered in one tablet twice daily. All patients received an extra dose of probucol 1000 mg and/or vitamin E 2000 IU and/or matched placebos twelve hours before angioplasty, according to randomization assignment. […] All patients received aspirin 325 mg daily started at least thirty days before procedure and continued for the study period. Balloon angioplasty was performed according to standard techniques. Intracoronary nitroglycerin (0.3 mg) was given for each target artery for both pre- and post-dilatation angiography and at follow-up. The sequence of contrast injections with the exact degree of angulation was recorded and used for every angiogram. Coronary arteriograms (pre-, post-procedure, and final follow-up) were analyzed together using the Coronary Measurement System (CMS), as previously reported. Patient follow-up included clinical evaluation, exercise treadmill testing, blood chemistry, pill count and drug level measurements, and dietary assessment and intervention. Patients were readmitted for follow-up coronary angiography at five to seven months. […]

SMILES: CC(C)(Sc1cc(C(C)(C)C)c(O)c(C(C)(C)C)c1)Sc1cc(C(C)(C)C)c(O)c(C(C)(C)C)c1 [Probucol Alone, 4,4′-([1-methylethylidene)bis(thio)]bis-[2,6-bis(1,1-dimethylethyl)phenol]]
- Lumen area (mm^2), Follow-up Post PTCA (change) (Patients [1]; efficacy analysis in compliant patients): −0.15 ± 1.70 mm^2
- Lumen area (mm^2), Follow-up Post PTCA (change) (Patients [1]; per segment analysis, Placebo −1.21 ± 1.88): −0.15 ± 1.70 mm^2
- increase in vessel enlargement (Patients [1]; probucol only versus placebo (EEM 1.74 versus 0.29 mm^2)): seven hundred-thirty
- protection against LDL oxidation (lag phase for LDL peroxidation) (LDL): significantly greater protection against LDL oxidation than vitamins alone or the combination of probucol and vitamins
- patients in whom restenosis still occurred (Patients [2]; probucol alone): over twenty
- reduction in restenosis rate per segment compared to placebo (Patients [2]; probucol given alone): forty-seven
- reduction in the need for repeat angioplasty compared to placebo (Patients [2]; probucol given alone, at 6 month): fifty-eight
- reduction in angiographic lumen loss compared to placebo (Patients [2]; probucol given alone, thirty days before and six months after angioplasty): sixty-eight
